Reference: patent publication US7309491B2, “Heat shock protein-based vaccines and immunotherapies” (priority 2003, dated 2007)
pKd: −log10 of the molar value. Where two headings read alike, the source gives them in different places.

How the values were obtained:
CD8+ T cells = format: in vivo, B6 mice
[1] = molecular target: recombinant human or murine heat shock protein 70 (hsp70); experiment: hsp70 binding inhibition assay (Hill plots) relative to labeled reference hybrid antigen; details: read-out: Kd for hsp70 binding, antigenic domains alone
[2] = test system: T cells of HHD II mice bearing human HLA-A2; details: mouse, in vivo
[3] = molecular target: recombinant human or murine heat shock protein 70 (hsp70); experiment: Scatchard analysis of labeled reference hybrid antigen binding to hsp70; details: 39% PBS, 20 mM THAM pH 8, 37 mM NaCl, 5 mM MgCl2, 1 mM ADP
[4] = test system: SIINFEKL-pulsed target cells; parameters: species or system mice; details: mouse, in vivo
B3Z cells = experiment: in-vitro antigen presentation assay (IL-2 produced by B3Z cells); format: cell-based; details: Ex. 12 (200-MF-41); 0.5 ng SIINFEKL; 5 ng […]; 1.4 ug hsp70
From the text: The in-vitro antigen presentation assay described above was utilized further in order to evaluate the formulations of the invention.

[5] = Ex. 17 prime-boost, doses as E100

## NLLRLTGWFFRKRTFSFQLI (SEQ ID NO:912) (Hybrid antigen)
CD8+ T cells; mouse, in vivo
  Number of Spots per 300,000 cells, Medium: 0.3 ± 0.4 Spots per 300,000 cells
  Number of Spots per 300,000 cells, Response to Class I epitope when Class I and Class II hybrid antigen admixture is administered: 43 ± 7.6 Spots per 300,000 cells
  Number of Spots per 300,000 cells, Response to Class I epitope when Class I hybrid antigen administered: 5.3 ± 1.5 Spots per 300,000 cells
  Number of Spots per 300,000 cells, Splenocytes: 0 ± 0 Spots per 300,000 cells

## NLLRLTGWFFRKIAYFYPEL (SEQ ID NO:913) (Hybrid antigen)
CD8+ T cells; mouse, in vivo
  Number of Spots per 300,000 cells, Medium: 0 ± 0 Spots per 300,000 cells
  Number of Spots per 300,000 cells, Response to Class I epitope when Class I and Class II hybrid antigen admixture is administered: 73 ± 9.8 Spots per 300,000 cells
  Number of Spots per 300,000 cells, Response to Class I epitope when Class I hybrid antigen administered: 11 ± 3 Spots per 300,000 cells
  Number of Spots per 300,000 cells, Splenocytes: 0 ± 0 Spots per 300,000 cells

## NLLRLTGWFFRKFAPGNYPAL (SEQ ID NO:892) (Hybrid antigen)
CD8+ T cells; mouse, in vivo
  Number of Spots per 300,000 cells, FAPGNYPAL (SEQ ID NO:906): 4.3 ± 3.2 Spots per 300,000 cells
  Number of Spots per 300,000 cells, IAYFYPEL (SEQ ID NO:904): 0.3 ± 0.6 Spots per 300,000 cells
  Number of Spots per 300,000 cells, Medium: 0 ± 0 Spots per 300,000 cells

## RGYVYQGL
[1]
  pKd: 4.09

## NLLRLTGWFFRKIMDQVPFSV
[2]
  Number of Spots per 400,000 cells: IMD: 27 ± 5.1 spots per 400,000 cells
  Number of Spots per 400,000 cells: Medium control: 0.0 ± 0.0 spots per 400,000 cells
  Number of Spots per 400,000 cells: Unpulsed control: 0.0 ± 0.0 spots per 400,000 cells
  Number of Spots per 400,000 cells: YMD control: 2.0 ± 2.0 spots per 400,000 cells

## ALFDIESKVGSGHWDFAWPW
[3]; fluoresceinated label
  pKd: 4.97
[3]; tritiated label
  pKd: 4.65

## SIINFEKL [reference compound]
[4]
  CTL % killing at 200:1 E/T: 6%
B3Z cells
  Pg/ml IL-2 produced by B3Z cells: 2690 ± 369 pg/mL
CD8+ T cells; Ex. 8 (200-17), B6 mice, no added hsp70, 10 μg SIINFEKL or 0.5 μg […]
  Number of spots per 400,000 cells: SIINFEKL (SEQ ID NO:868): 2.33 ± 0.41 spots per 400,000 cells
CD8+ T cells; Ex. 8 (200-17), doses as E40
  Number of Spots per 400,000 cells: Con A positive control: 928 ± 72 spots per 400,000 cells
  Number of Spots per 400,000 cells: Medium control: 0.33 ± 0.41 spots per 400,000 cells
  Number of Spots per 400,000 cells: Unpulsed control: 1.33 ± 0.82 spots per 400,000 cells
  Number of spots per 400,000 cells: VSV control: 1.7 ± 0.41 spots per 400,000 cells
CD8+ T cells; Ex. 9 (VSV-72-02), doses as E55
  Number of spots per 400,000 cells: VSV control: 1.0 ± 1.0 spots per 400,000 cells
CD8+ T cells; Ex. 17 prime-boost, 2 μg hsp70, 2 μg hsp70 with 4 μg SIINFEKL or 4 μg hybrid antigen, 2 μg hybrid antigen alone, SIINFEKL dose not given
  number of spots per 400,000 cells; immunized day 0, analyzed day 7: 3.0 ± 2.0 spots per 400,000 cells
CD8+ T cells; [5]
  number of spots per 400,000 cells; immunized day 0, analyzed day 21: 0.0 ± 1.0 spots per 400,000 cells
  number of spots per 400,000 cells; immunized day 0, analyzed day 28: 1.0 ± 1.0 spots per 400,000 cells
  number of spots per 400,000 cells; immunized days 0, 7, analyzed day 21: 2.0 ± 1.0 spots per 400,000 cells
  number of spots per 400,000 cells; immunized days 0, 14, analyzed day 28: 1.0 ± 1.0 spots per 400,000 cells
CD8+ T cells; mouse, in vivo
  Number of Spots per 400,000 cells: Con A positive control: 478 ± 67 spots per 400,000 cells
  Number of Spots per 400,000 cells: Medium control: 0.0 ± 0.0 spots per 400,000 cells
  Number of Spots per 400,000 cells: Unpulsed control: 0.0 ± 1.0 spots per 400,000 cells
  Number of spots per 400,000 cells: SIINFEKL (SEQ ID NO:868): 1.0 ± 1.0 spots per 400,000 cells
